From ChEMBL document CHEMBL3763027, “Identification and characterization of potent, selective and metabolically stable IKKβ inhibitor” (Bioorg Med Chem Lett, 2016)

Legend:
Mus musculus [1] = test: Toxicity in female ICR mouse assessed as average body weight at 2000 mg/kg, po administered for 14 days measured 3 hrs post last dose (reference value: 18.9 +/- 0.9 g); assay type: organism-based; conditions: in vivo
[2] = Metabolic stability in rat plasma assessed as compound remaining after 120 mins; assay type: ADME, cell-free; conditions: read-out: Stability
[3] = biological target: Proto-oncogene tyrosine-protein kinase Src (Homo sapiens) (UniProt P12931); test: Inhibition of c-Src (unknown origin) at 10 uM
[4] = biological target: Cyclin-dependent kinase 7/ cyclin H (Homo sapiens) (UniProt P51946+P50613); test: Inhibition of CDK7/cyclin H (unknown origin) at 10 uM; assay type: protein-complex assay
Mus musculus [5] = test: Toxicity in male ICR mouse assessed as average body weight at 2000 mg/kg, po administered for 10 days measured 3 hrs post last dose (reference value: 20.3 +/- 0.4 g); assay type: organism-based; conditions: in vivo
[6] = biological target: Serine/threonine-protein kinase Chk2 (Homo sapiens) (UniProt O96017); test: Inhibition of CHK2 (unknown origin) at 10 uM
[7] = biological target: Serine/threonine-protein kinase B-raf (Homo sapiens) (UniProt P15056); test: Inhibition of BRAF (unknown origin) at 10 uM
[8] = biological target: Epidermal growth factor receptor (Homo sapiens) (UniProt P00533); test: Inhibition of EGFR (unknown origin) at 10 uM
[9] = AUC (0 to infinity) in Sprague-Dawley rat at 1 mg/kg, iv after 0.25 to 24 hrs; assay type: ADME, organism-based; parameters: dose 1 mg/kg, time infinity, route intravenous; conditions: in vivo
[10] = biological target: Tyrosine-protein kinase Lck (Homo sapiens) (UniProt P06239); test: Inhibition of LCK (unknown origin) at 10 uM
[11] = biological target: Tyrosine-protein kinase Lyn (Homo sapiens) (UniProt P07948); test: Inhibition of LYN (unknown origin) at 10 uM
[12] = biological target: Fibroblast growth factor receptor 1 (Homo sapiens) (UniProt P11362); test: Inhibition of FGFR1 (unknown origin) at 10 uM
[13] = biological target: Tyrosine-protein kinase ABL1 (Homo sapiens) (UniProt P00519); test: Inhibition of Abl1 (unknown origin) at 10 uM
Mus musculus [14] = test: Toxicity in male ICR mouse assessed as average body weight at 2000 mg/kg, po administered for 2 days measured 3 hrs post last dose (reference value: 20.3 +/- 0.4 g); assay type: organism-based; conditions: in vivo
Mus musculus [15] = test: Toxicity in female ICR mouse assessed as average body weight at 2000 mg/kg, po administered on day 1 measured 3 hrs post dose (reference value: 18.9 +/- 0.9 g); assay type: organism-based; conditions: in vivo
[16] = biological target: Serine/threonine-protein kinase pim-1 (Homo sapiens) (UniProt P11309); test: Inhibition of PIM1 (unknown origin) at 10 uM
Rattus norvegicus [17] = test: Volume of distribution in Sprague-Dawley rat at 2 mg/kg, po after 0.25 to 24 hrs; assay type: ADME, organism-based; conditions: in vivo
[18] = biological target: Mitogen-activated protein kinase 9 (Homo sapiens) (UniProt P45984); test: Inhibition of JNK2 (unknown origin) at 10 uM
[19] = biological target: Cyclin-dependent kinase 1/cyclin B1 (Homo sapiens) (UniProt P06493+P14635); test: Inhibition of CDK1/cyclin B (unknown origin) at 10 uM; assay type: protein-complex assay
[20] = biological target: Glycogen synthase kinase-3 beta (Homo sapiens) (UniProt P49841); test: Inhibition of GSK3beta (unknown origin) at 10 uM
Mus musculus [21] = test: Toxicity in male ICR mouse assessed as average body weight at 2000 mg/kg, po administered for 14 days measured 3 hrs post last dose (reference value: 20.3 +/- 0.4 g); assay type: organism-based; conditions: in vivo
[22] = biological target: Rho-associated protein kinase 1 (Homo sapiens) (UniProt Q13464); test: Inhibition of ROCK1 (unknown origin) at 10 uM
[23] = Clearance in Sprague-Dawley rat at 1 mg/kg, iv after 0.25 to 24 hrs; assay type: ADME, organism-based; conditions: in vivo
[24] = biological target: Serine/threonine-protein kinase TBK1 (Homo sapiens) (UniProt Q9UHD2); test: Inhibition of TBK1 (unknown origin) at 10 uM
[25] = biological target: Angiopoietin-1 receptor (Homo sapiens) (UniProt Q02763); test: Inhibition of TIE2 (unknown origin) at 10 uM
[26] = biological target: Calcium/calmodulin-dependent protein kinase type 1 (Homo sapiens) (UniProt Q14012); test: Inhibition of CAMK1alpha (unknown origin) at 10 uM
[27] = biological target: MAP kinase-interacting serine/threonine-protein kinase 2 (Homo sapiens) (UniProt Q9HBH9); test: Inhibition of MNK2 (unknown origin) at 10 uM
Homo sapiens = species: Homo sapiens; test: Inhibition of PKA (unknown origin) at 10 uM
[28] = biological target: MAP kinase-interacting serine/threonine-protein kinase 1 (Homo sapiens) (UniProt Q9BUB5); test: Inhibition of MNK1 (unknown origin) at 10 uM
[29] = biological target: Protein kinase C alpha type (Homo sapiens) (UniProt P17252); test: Inhibition of PKCalpha (unknown origin) at 10 uM
Mus musculus [30] = test: Toxicity in male ICR mouse assessed as average body weight at 2000 mg/kg, po administered for 3 days measured 3 hrs post last dose (reference value: 20.3 +/- 0.4 g); assay type: organism-based; conditions: in vivo
[31] = biological target: Ribosomal protein S6 kinase alpha-5 (Homo sapiens) (UniProt O75582); test: Inhibition of MSK1 (unknown origin) at 10 uM
[32] = biological target: Ephrin type-A receptor 2 (Homo sapiens) (UniProt P29317); test: Inhibition of EPHA2 (unknown origin) at 10 uM
Rattus norvegicus [33] = test: Clearance in Sprague-Dawley rat at 2 mg/kg, po after 0.25 to 24 hrs; assay type: ADME, organism-based; conditions: in vivo
Rattus norvegicus [34] = test: AUC (0 to infinity) in Sprague-Dawley rat at 2 mg/kg, po after 0.25 to 24 hrs; assay type: ADME, organism-based; parameters: dose 2 mg/kg, time infinity, route oral; conditions: in vivo
[35] = biological target: MAP kinase-activated protein kinase 5 (Homo sapiens) (UniProt Q8IW41); test: Inhibition of MAPKAPK5 (unknown origin) at 10 uM
[36] = biological target: Inhibitor of nuclear factor kappa-B kinase subunit epsilon (Homo sapiens) (UniProt Q14164); test: Inhibition of IKKepsilon (unknown origin) at 10 uM
[37] = biological target: Cyclin-dependent kinase 5/CDK5 activator 1 (Homo sapiens) (UniProt Q00535+Q15078); test: Inhibition of CDK5/p25 (unknown origin) at 10 uM; assay type: protein-complex assay
[38] = biological target: Serine/threonine-protein kinase Chk1 (Homo sapiens) (UniProt O14757); test: Inhibition of CHK1 (unknown origin) at 10 uM

Chain of MAP kinase-activated protein kinase 5 (Homo sapiens) (Q8IW41 whole entry): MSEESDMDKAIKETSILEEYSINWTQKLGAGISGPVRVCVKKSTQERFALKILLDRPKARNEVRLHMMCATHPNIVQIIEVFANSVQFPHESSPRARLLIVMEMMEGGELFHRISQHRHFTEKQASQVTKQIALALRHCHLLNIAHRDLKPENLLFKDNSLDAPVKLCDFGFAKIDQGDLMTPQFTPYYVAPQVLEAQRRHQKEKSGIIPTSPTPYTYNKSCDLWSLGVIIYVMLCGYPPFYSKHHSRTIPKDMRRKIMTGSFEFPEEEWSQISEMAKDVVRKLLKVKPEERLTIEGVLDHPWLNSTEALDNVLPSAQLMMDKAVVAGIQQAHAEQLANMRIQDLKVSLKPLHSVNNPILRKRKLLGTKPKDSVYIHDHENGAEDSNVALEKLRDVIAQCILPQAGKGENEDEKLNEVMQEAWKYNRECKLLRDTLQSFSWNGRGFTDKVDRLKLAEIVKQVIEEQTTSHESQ
Chain of Calcium/calmodulin-dependent protein kinase type 1 (Homo sapiens) (Q14012 whole entry, looked up): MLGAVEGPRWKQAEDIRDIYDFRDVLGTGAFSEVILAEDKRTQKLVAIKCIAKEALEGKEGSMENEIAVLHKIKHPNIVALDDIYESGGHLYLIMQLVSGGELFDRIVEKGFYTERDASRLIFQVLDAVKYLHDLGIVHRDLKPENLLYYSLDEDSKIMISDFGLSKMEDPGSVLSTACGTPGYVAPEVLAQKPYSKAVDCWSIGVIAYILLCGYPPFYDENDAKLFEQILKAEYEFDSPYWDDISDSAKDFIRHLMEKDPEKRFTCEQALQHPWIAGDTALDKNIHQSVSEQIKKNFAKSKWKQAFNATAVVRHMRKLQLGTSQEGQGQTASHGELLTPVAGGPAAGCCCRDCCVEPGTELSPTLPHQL
Chain of Proto-oncogene tyrosine-protein kinase Src (Homo sapiens) (P12931 2-536 limits assumed): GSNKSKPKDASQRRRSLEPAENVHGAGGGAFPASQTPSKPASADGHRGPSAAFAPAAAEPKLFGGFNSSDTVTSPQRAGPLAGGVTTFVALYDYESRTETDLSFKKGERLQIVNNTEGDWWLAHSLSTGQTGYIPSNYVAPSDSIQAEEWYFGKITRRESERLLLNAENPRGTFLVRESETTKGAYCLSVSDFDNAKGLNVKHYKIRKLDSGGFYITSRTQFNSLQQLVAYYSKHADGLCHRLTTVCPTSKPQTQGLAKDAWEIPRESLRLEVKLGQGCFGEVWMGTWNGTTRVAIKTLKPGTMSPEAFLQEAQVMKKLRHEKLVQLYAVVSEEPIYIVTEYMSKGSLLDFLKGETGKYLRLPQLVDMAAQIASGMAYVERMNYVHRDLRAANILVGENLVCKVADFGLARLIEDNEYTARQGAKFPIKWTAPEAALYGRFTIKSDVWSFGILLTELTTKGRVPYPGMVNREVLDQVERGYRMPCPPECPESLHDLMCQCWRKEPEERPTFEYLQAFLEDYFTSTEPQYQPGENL
Chain of Angiopoietin-1 receptor (Homo sapiens) (Q02763 whole entry): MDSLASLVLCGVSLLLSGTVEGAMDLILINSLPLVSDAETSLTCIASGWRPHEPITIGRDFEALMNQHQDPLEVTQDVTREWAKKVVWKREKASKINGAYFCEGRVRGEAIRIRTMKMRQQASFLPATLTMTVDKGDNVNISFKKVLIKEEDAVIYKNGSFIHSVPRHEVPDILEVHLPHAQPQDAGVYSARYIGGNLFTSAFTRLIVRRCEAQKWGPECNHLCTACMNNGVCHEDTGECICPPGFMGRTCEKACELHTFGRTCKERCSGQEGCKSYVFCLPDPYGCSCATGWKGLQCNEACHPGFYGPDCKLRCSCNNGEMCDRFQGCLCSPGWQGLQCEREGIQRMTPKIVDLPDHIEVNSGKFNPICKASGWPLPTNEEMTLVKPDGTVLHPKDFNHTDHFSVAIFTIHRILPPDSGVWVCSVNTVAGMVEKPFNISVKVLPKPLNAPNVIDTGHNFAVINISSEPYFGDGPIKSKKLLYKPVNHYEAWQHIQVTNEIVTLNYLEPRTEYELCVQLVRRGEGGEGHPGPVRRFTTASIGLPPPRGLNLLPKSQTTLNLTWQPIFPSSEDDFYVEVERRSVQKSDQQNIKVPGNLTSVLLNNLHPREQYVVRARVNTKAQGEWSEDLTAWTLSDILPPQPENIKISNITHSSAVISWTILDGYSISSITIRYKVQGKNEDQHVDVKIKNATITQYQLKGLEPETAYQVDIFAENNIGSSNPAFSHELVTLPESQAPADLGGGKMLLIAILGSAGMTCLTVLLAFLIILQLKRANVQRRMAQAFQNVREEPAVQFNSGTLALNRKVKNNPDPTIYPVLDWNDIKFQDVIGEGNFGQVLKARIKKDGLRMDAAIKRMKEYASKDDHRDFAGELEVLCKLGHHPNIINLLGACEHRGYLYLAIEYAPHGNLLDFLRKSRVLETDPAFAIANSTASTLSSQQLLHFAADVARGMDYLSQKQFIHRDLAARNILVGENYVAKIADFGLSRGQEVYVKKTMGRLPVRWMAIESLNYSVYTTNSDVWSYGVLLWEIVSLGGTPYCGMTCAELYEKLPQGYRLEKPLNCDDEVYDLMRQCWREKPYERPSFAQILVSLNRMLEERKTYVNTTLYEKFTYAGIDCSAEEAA
Chain of MAP kinase-interacting serine/threonine-protein kinase 2 (Homo sapiens) (Q9HBH9 whole entry, looked up): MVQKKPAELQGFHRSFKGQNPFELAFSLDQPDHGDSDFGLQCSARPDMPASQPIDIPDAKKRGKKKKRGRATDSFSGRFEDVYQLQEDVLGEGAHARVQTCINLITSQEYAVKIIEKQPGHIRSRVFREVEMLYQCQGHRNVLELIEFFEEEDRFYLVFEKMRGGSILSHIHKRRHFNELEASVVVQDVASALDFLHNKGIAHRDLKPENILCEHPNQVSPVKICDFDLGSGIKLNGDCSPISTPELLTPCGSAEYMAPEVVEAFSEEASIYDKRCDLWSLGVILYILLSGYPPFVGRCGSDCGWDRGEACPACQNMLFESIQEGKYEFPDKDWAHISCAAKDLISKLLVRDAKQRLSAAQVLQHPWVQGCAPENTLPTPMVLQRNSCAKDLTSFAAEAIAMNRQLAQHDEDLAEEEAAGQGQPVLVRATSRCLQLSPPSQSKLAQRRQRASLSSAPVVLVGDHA
Chain of Tyrosine-protein kinase Lyn (Homo sapiens) (P07948 2-512 limits assumed): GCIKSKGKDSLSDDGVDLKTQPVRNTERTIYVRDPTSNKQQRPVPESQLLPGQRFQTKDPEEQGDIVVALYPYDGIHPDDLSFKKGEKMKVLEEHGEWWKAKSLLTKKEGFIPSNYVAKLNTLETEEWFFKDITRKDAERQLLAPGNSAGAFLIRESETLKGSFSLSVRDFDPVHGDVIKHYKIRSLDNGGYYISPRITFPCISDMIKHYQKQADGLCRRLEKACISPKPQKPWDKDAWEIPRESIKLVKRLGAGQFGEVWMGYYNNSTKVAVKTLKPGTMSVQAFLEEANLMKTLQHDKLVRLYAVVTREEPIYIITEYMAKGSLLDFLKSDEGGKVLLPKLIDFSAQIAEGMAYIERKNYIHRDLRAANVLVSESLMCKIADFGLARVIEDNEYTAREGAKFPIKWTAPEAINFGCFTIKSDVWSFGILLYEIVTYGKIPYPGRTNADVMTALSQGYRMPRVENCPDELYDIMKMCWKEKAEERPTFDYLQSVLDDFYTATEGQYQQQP
Chain of Epidermal growth factor receptor (Homo sapiens) (P00533 whole entry): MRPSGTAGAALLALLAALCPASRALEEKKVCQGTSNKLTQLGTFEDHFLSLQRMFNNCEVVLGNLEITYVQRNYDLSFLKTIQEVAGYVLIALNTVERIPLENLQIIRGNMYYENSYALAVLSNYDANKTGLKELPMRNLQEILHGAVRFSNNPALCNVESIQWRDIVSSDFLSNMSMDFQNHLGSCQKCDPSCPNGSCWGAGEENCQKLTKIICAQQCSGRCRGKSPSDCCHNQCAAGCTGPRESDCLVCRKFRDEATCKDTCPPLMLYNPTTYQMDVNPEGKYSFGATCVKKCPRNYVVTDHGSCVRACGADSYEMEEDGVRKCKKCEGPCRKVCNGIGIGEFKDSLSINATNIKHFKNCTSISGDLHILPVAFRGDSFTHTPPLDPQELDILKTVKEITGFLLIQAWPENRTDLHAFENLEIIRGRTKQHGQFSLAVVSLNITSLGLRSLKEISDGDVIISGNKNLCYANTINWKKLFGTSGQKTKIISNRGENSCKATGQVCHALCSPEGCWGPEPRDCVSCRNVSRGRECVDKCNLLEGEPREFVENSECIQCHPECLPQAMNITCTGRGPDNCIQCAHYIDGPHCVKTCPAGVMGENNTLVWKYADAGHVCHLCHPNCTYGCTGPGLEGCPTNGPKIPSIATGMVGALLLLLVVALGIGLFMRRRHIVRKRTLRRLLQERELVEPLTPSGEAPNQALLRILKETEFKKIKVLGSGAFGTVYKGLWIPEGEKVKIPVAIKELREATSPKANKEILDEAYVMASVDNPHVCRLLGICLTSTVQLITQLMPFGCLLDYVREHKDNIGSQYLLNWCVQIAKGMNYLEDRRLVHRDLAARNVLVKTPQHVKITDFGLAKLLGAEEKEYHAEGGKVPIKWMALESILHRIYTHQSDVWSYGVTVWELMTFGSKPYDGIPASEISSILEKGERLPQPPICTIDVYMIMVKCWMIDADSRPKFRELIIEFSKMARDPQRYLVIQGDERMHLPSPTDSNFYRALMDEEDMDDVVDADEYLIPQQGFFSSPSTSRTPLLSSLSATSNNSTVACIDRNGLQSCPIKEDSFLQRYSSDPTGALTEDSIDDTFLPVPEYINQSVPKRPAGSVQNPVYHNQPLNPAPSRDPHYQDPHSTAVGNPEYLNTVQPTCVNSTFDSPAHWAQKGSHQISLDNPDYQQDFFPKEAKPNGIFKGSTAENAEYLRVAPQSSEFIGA
Chain of Serine/threonine-protein kinase pim-1 (Homo sapiens) (P11309 whole entry, looked up): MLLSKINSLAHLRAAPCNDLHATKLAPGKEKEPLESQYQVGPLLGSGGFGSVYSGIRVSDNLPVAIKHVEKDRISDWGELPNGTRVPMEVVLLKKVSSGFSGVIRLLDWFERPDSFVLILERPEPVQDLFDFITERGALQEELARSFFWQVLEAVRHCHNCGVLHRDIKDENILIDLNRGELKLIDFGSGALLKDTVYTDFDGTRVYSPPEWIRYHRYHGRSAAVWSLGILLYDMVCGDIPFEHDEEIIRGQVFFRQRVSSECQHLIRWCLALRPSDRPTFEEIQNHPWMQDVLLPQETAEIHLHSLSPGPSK

For `CN1CCN(CCCOc2ccc(N3C(=O)/C(=C/c4ccc(Oc5ccc(F)cc5)cc4)SC3=S)cc2)CC1`, the Activity (Mus musculus [1]) was 35.1 g, the remaining at 2 h [2] was 87% and the inhibition [3] was 14%. The inhibition [4] was 2.5%, the Activity (Mus musculus [5]) was 27.4 g and the inhibition [6] was 47%. For the same compound, the inhibition [7] was 0%, the inhibition [8] was 0% and the AUC(0-inf) [9] was 176 ng·h/mL. The inhibition [10] was 0%, the inhibition [11] was 27.8% and the inhibition [12] was 20.5%. It also gave an inhibition [13] of 20%, an Activity (Mus musculus [14]) of 22.1 g and an Activity (Mus musculus [15]) of 19.7 g. It also gave an inhibition [16] of 0%, a Vd (Rattus norvegicus [17]) of 50.58 L/kg and an inhibition [18] of 0%. The inhibition [19] was 3.1%, the inhibition [20] was 0% and the Activity (Mus musculus [21]) was 29.2 g. The inhibition [22] was 61.1%, the clearance [23] was 98 mL/min/kg and the inhibition [24] was 0%. The inhibition [25] was 57.5%, the inhibition [26] was 58.6% and the inhibition [27] was 33.1%. The inhibition (Homo sapiens) was 0%, the inhibition [28] was 0% and the inhibition [29] was 18.4%. The Activity (Mus musculus [30]) was 23.2 g, the inhibition [31] was 27.1% and the inhibition [32] was 29%. It also gave a CL (Rattus norvegicus [33]) of 97.7 mL/min/kg, an AUC (Rattus norvegicus [34]) of 79.4 ng·h/mL and an inhibition [35] of 5.2%. The inhibition [36] was 0%, the inhibition [37] was 5.5% and the inhibition [38] was 0%.
